Data taken from patent US8415342B2, “Besifloxacin ophthalmic composition for the treatment or control of infection” (Bausch & Lomb Incorporated, priority 2008, dated 2013).

Legend:
Type in all cases: cell-based
[1] = tested on: baseline pathogens of bacterial conjunctivitis patients; test: MIC of baseline clinical trial isolates, Studies 373, 433, 434 (all species)
[2] = tested on: CDC coryneform group G; test: MIC of clinical trial isolates, Studies 373, 433, 434; conditions: N 29
Method: (§1) PFGE testing was performed per standard procedures.
(§2) The antibacterial susceptibility profile of each Visit 1 bacterial isolate was determined for besifloxacin and other antimicrobials.

[3] = tested on: H. influenzae; test: as above; conditions: Haemophilus influenzae, all phenotypes, N 344
Method: as §1, §2

[4] = tested on: S. mitis group; test: as above; conditions: Streptococcus mitis group, N 45
Method: as §1, §2

[5] = tested on: S. pneumoniae; test: as above; conditions: Streptococcus pneumoniae, all phenotypes, N 302
Method: as §1, §2

[6] = tested on: Streptococcus oralis; test: as above; conditions: N 18
Method: as §1, §2

[7] = tested on: S. aureus; test: as above; conditions: Staphylococcus aureus, all phenotypes, N 190
[8] = tested on: S. epidermidis; test: as above; conditions: Staphylococcus epidermidis, all phenotypes, N 111
[9] = tested on: Corynebacterium pseudodiphtheriticum; test: as above; conditions: N 8
[10] = tested on: Corynebacterium striatum; test: as above; conditions: N 8
[11] = tested on: Staphylococcus hominis; test: as above; conditions: N 9
[12] = tested on: Staphylococcus lugdunensis; test: as above; conditions: N 8
[13] = tested on: Streptococcus mitis; test: as above; conditions: Streptococcus mitis (listed separately from S. mitis group), N 20
Method: PFGE testing was performed per standard procedures. […] Analysis Populations

[14] = tested on: Streptococcus salivarius; test: as above; conditions: N 9

COc1c(N2CCNC(C)C2)c(F)cc2c(=O)c(C(=O)O)cn(C3CC3)c12 (stereo not shown) [GATI] was tested, and the MIC50 ([1]; All organisms, N 1324) was 0.125 µg/mL, the MIC90 ([1]; All organisms, N 1324) was 0.5 µg/mL and the MIC50 ([1]; Gram-negative, N 438) was 0.015 µg/mL. The MIC90 ([1]; Gram-negative, N 438) was 0.25 µg/mL, the “MIC Range” value ([1]; Gram-negative, N 438) was “≦0.004-8 μg/mL” and the MIC50 ([1]; Gram-positive, N 886) was 0.25 µg/mL. It also gave an MIC90 ([1]; Gram-positive, N 886) of 1 µg/mL, an MIC50 [2] of 0.06 µg/mL and an MIC90 [2] of 0.5 µg/mL. For the same molecule, the “MIC Range” value [2] was 0.03 to 8 µg/mL, the MIC50 [3] was 0.015 µg/mL and the MIC90 [3] was 0.03 µg/mL. For the same molecule, the “MIC Range” value [3] was “≦0.004-0.5 μg/mL”, the MIC50 [4] was 0.5 µg/mL and the MIC90 [4] was 0.5 µg/mL. The “MIC Range” value [4] was 0.06 to 2 µg/mL, the MIC50 [5] was 0.25 µg/mL and the MIC90 [5] was 0.5 µg/mL. For the same molecule, the “MIC Range” value [5] was 0.125 to 1 µg/mL, the MIC50 [6] was 0.5 µg/mL and the MIC90 [6] was 1 µg/mL. The “MIC Range” value [6] was 0.03 to 1 µg/mL, the MIC50 [7] was 0.125 µg/mL and the MIC90 [7] was 4 µg/mL. It also gave an MIC50 [8] of 0.125 µg/mL, an MIC90 [8] of 2 µg/mL and an MIC50 [9] of 0.5 µg/mL. For the same molecule, the “MIC Range” value [9] was 0.06 to 0.5 µg/mL, the MIC50 [10] was 0.03 µg/mL and the “MIC Range” value [10] was 0.015 to 2 µg/mL. For the same molecule, the MIC50 [11] was 0.125 µg/mL, the “MIC Range” value [11] was 0.06 to 2 µg/mL and the MIC50 [12] was 0.25 µg/mL. The “MIC Range” value [12] was 0.25 to 2 µg/mL, the MIC50 [13] was 0.5 µg/mL and the MIC90 [13] was 1 µg/mL. The “MIC Range” value [13] was 0.25 to 1 µg/mL, the MIC50 [14] was 0.5 µg/mL and the “MIC Range” value [14] was 0.5 to 2 µg/mL.

N[C@@H]1CCCCN(c2c(F)cc3c(=O)c(C(=O)O)cn(C4CC4)c3c2Cl)C1 [BESI] was tested, and the MIC50 ([1]; All organisms, N 1324) was 0.06 µg/mL, the MIC90 ([1]; All organisms, N 1324) was 0.25 µg/mL and the “MIC Range” value ([1]; All organisms, N 1324) was 0.008 to 8 µg/mL. For the same molecule, the MIC50 ([1]; Gram-negative, N 438) was 0.03 µg/mL, the MIC90 ([1]; Gram-negative, N 438) was 0.5 µg/mL and the “MIC Range” value ([1]; Gram-negative, N 438) was 0.008 to 8 µg/mL. The MIC50 ([1]; Gram-positive, N 886) was 0.06 µg/mL, the MIC90 ([1]; Gram-positive, N 886) was 0.25 µg/mL and the “MIC Range” value ([1]; Gram-positive, N 886) was 0.008 to 8 µg/mL. The MIC50 [2] was 0.015 µg/mL, the MIC90 [2] was 0.125 µg/mL and the “MIC Range” value [2] was 0.008 to 2 µg/mL. For the same molecule, the MIC50 [3] was 0.03 µg/mL, the MIC90 [3] was 0.06 µg/mL and the “MIC Range” value [3] was 0.008 to 0.5 µg/mL. For the same molecule, the MIC50 [4] was 0.125 µg/mL, the MIC90 [4] was 0.25 µg/mL and the “MIC Range” value [4] was 0.03 to 1 µg/mL. For the same molecule, the MIC50 [5] was 0.06 µg/mL, the MIC90 [5] was 0.125 µg/mL and the “MIC Range” value [5] was 0.03 to 0.25 µg/mL. For the same molecule, the MIC50 [6] was 0.125 µg/mL, the MIC90 [6] was 0.25 µg/mL and the “MIC Range” value [6] was 0.015 to 0.25 µg/mL. The MIC50 [7] was 0.03 µg/mL, the MIC90 [7] was 0.5 µg/mL and the “MIC Range” value [7] was 0.008 to 8 µg/mL. The MIC50 [8] was 0.06 µg/mL, the MIC90 [8] was 0.5 µg/mL and the “MIC Range” value [8] was 0.03 to 4 µg/mL. For the same molecule, the MIC50 [9] was 0.25 µg/mL, the “MIC Range” value [9] was 0.015 to 0.25 µg/mL and the MIC50 [10] was 0.015 µg/mL. The “MIC Range” value [10] was 0.015 to 0.25 µg/mL, the MIC50 [11] was 0.06 µg/mL and the “MIC Range” value [11] was 0.03 to 0.5 µg/mL. For the same molecule, the MIC50 [12] was 0.125 µg/mL, the “MIC Range” value [12] was 0.06 to 0.5 µg/mL and the MIC50 [13] was 0.125 µg/mL. The MIC90 [13] was 0.125 µg/mL, the “MIC Range” value [13] was 0.06 to 0.25 µg/mL and the MIC50 [14] was 0.125 µg/mL. The “MIC Range” value [14] was 0.06 to 0.25 µg/mL.
